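Five compound concentrations were applied to cells in 96-well plates for 48 hours; endpoints were derived by simple linear interpolation of the resulting dose-response curve. At the GI50, growth is halved. TGI is the concentration that stops growth completely.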
Experiments:
Assay in all cases: inhibition of tumour cell growth, NCI panel, 48 h
SK-OV-3 ovarian = system: SK-OV-3 ovarian
SK-MEL-2 melanoma = system: SK-MEL-2 melanoma
COLO 205 colon = system: COLO 205 colon
MALME-3M melanoma = system: MALME-3M melanoma
OVCAR-8 ovarian = system: OVCAR-8 ovarian
A498 renal = system: A498 renal
OVCAR-3 ovarian = system: OVCAR-3 ovarian
M14 melanoma = system: M14 melanoma
CAKI-1 renal = system: CAKI-1 renal
SN12C renal = system: SN12C renal
RPMI-8226 leukemia = system: RPMI-8226 leukemia
NCI/ADR-RES ovarian = system: NCI/ADR-RES ovarian
UO-31 renal = system: UO-31 renal
HT29 colon = system: HT29 colon
UACC-257 melanoma = system: UACC-257 melanoma
SK-MEL-28 melanoma = system: SK-MEL-28 melanoma
SR leukemia = system: SR leukemia
OVCAR-5 ovarian = system: OVCAR-5 ovarian
HL-60(TB) leukemia = system: HL-60(TB) leukemia
SNB-75 CNS = system: SNB-75 CNS
K-562 leukemia = system: K-562 leukemia
SF-268 CNS = system: SF-268 CNS
LOX IMVI melanoma = system: LOX IMVI melanoma
PC-3 prostate = system: PC-3 prostate
IGROV1 ovarian = system: IGROV1 ovarian
HCC-2998 colon = system: HCC-2998 colon
HCT-116 colon = system: HCT-116 colon
EKVX NSCLC = system: EKVX NSCLC
RXF 393 renal = system: RXF 393 renal
HS 578T breast = system: HS 578T breast
SW-620 colon = system: SW-620 colon
MDA-MB-231 breast = system: MDA-MB-231 breast
KM12 colon = system: KM12 colon
A549 NSCLC = system: A549 NSCLC
NCI-H226 lung = system: NCI-H226 lung
CCRF-CEM leukemia = system: CCRF-CEM leukemia
NCI-H460 lung = system: NCI-H460 lung
BT-549 breast = system: BT-549 breast
HOP-62 NSCLC = system: HOP-62 NSCLC
UACC-62 melanoma = system: UACC-62 melanoma
786-0 renal = system: 786-0 renal
HCT-15 colon = system: HCT-15 colon
MOLT-4 leukemia = system: MOLT-4 leukemia
TK-10 renal = system: TK-10 renal
SNB-19 CNS = system: SNB-19 CNS
OVCAR-4 ovarian = system: OVCAR-4 ovarian
MCF7 breast = system: MCF7 breast
NCI-H522 lung = system: NCI-H522 lung
DU-145 prostate = system: DU-145 prostate
MDA-MB-435 = system: MDA-MB-435
ACHN renal = system: ACHN renal
T-47D breast = system: T-47D breast
SF-539 CNS = system: SF-539 CNS
U251 CNS = system: U251 CNS
SK-MEL-5 melanoma = system: SK-MEL-5 melanoma
SF-295 CNS = system: SF-295 CNS
HOP-92 NSCLC = system: HOP-92 NSCLC
NCI-H23 lung = system: NCI-H23 lung

## CC(=O)N(O)CCCCCNC(=O)CCC(=O)N(O)CCCCCNC(=O)CCC(=O)N(O)CCCCCN(CCCCCCCCCC[P+](c1ccccc1)(c1ccccc1)c1ccccc1)CCCCCCCCCC[P+](c1ccccc1)(c1ccccc1)c1ccccc1
SK-OV-3 ovarian
  GI50: 2300 nM
  TGI: 6.15 µM
SK-MEL-2 melanoma
  GI50: 2610 nM
  TGI: 7.86 µM
COLO 205 colon
  GI50: 1580 nM
  TGI: 3.55 µM
MALME-3M melanoma
  GI50: 4.11 µM
  TGI: 20.3 µM
OVCAR-8 ovarian
  GI50: 3070 nM
  TGI: 14.8 µM
A498 renal
  GI50: 18.9 µM
  TGI: 81.2 µM
OVCAR-3 ovarian
  GI50: 4.22 µM
  TGI: 23.2 µM
M14 melanoma
  GI50: 4110 nM
  TGI: 21.9 µM
CAKI-1 renal
  GI50: 10.8 µM
  TGI: 24.4 µM
SN12C renal
  GI50: 2.88 µM
  TGI: 11.1 µM
RPMI-8226 leukemia
  GI50: 2120 nM
  TGI: 9.63 µM
NCI/ADR-RES ovarian
  GI50: 31.3 µM
  TGI: > 100 µM
UO-31 renal
  GI50: 16 µM
  TGI: > 100 µM
HT29 colon
  GI50: 2840 nM
  TGI: 11.4 µM
UACC-257 melanoma
  GI50: 2660 nM
  TGI: 10 µM
SK-MEL-28 melanoma
  GI50: 3620 nM
  TGI: 18.3 µM
SR leukemia
  GI50: 2710 nM
  TGI: 11.2 µM
OVCAR-5 ovarian
  GI50: 3460 nM
  TGI: 15.5 µM
HL-60(TB) leukemia
  GI50: 2040 nM
  TGI: 6.01 µM
SNB-75 CNS
  GI50: 2690 nM
  TGI: 11.4 µM
K-562 leukemia
  GI50: 1470 nM
  TGI: 15.4 µM
SF-268 CNS
  GI50: 4.6 µM
  TGI: 26.4 µM
LOX IMVI melanoma
  GI50: 3210 nM
  TGI: 10.2 µM
PC-3 prostate
  GI50: 2950 nM
  TGI: 13.4 µM
IGROV1 ovarian
  GI50: 2830 nM
  TGI: 16.8 µM
HCC-2998 colon
  GI50: 3450 nM
  TGI: 13.9 µM
HCT-116 colon
  GI50: 2930 nM
  TGI: 23.8 µM
EKVX NSCLC
  GI50: 1350 nM
  TGI: 13 µM
RXF 393 renal
  GI50: 3300 nM
  TGI: 14.5 µM
HS 578T breast
  GI50: 3.77 µM
  TGI: 30.8 µM
SW-620 colon
  GI50: 4180 nM
  TGI: 16.5 µM
MDA-MB-231 breast
  GI50: 4.13 µM
  TGI: 19.6 µM
KM12 colon
  GI50: 3430 nM
  TGI: 21.1 µM
A549 NSCLC
  GI50: 3.47 µM
  TGI: > 100 µM
NCI-H226 lung
  GI50: 5.02 µM
  TGI: 23.9 µM
CCRF-CEM leukemia
  GI50: 2500 nM
  TGI: 23.4 µM
NCI-H460 lung
  GI50: 2380 nM
  TGI: 11.5 µM
BT-549 breast
  GI50: 2150 nM
  TGI: 9 µM
HOP-62 NSCLC
  GI50: 3460 nM
  TGI: 16.1 µM
UACC-62 melanoma
  GI50: 3350 nM
  TGI: 15.3 µM
786-0 renal
  GI50: 7.1 µM
  TGI: 26.6 µM
HCT-15 colon
  GI50: 14.6 µM
  TGI: 43.9 µM
MOLT-4 leukemia
  GI50: 3.52 µM
  TGI: 18.9 µM
TK-10 renal
  GI50: 9 µM
  TGI: 34.2 µM
SNB-19 CNS
  GI50: 3.09 µM
  TGI: 14.1 µM
OVCAR-4 ovarian
  GI50: 2730 nM
  TGI: 17.5 µM
MCF7 breast
  GI50: 2290 nM
  TGI: 10.8 µM
NCI-H522 lung
  GI50: 2520 nM
  TGI: 10.7 µM
DU-145 prostate
  GI50: 5.21 µM
  TGI: 25.4 µM
MDA-MB-435
  GI50: 2760 nM
  TGI: 11.3 µM
ACHN renal
  GI50: 16.1 µM
  TGI: 69.9 µM
T-47D breast
  GI50: 1780 nM
  TGI: 8.85 µM
SF-539 CNS
  GI50: 2800 nM
  TGI: 10.4 µM
U251 CNS
  GI50: 2000 nM
  TGI: 13 µM
SK-MEL-5 melanoma
  GI50: 3650 nM
  TGI: 15.8 µM
SF-295 CNS
  GI50: 2990 nM
  TGI: 14.1 µM
HOP-92 NSCLC
  GI50: 1490 nM
  TGI: 6.82 µM

## COc1ccc2c(c1)c(CC(=O)[Se]CC#N)c(C)n2C(=O)c1ccc(Cl)cc1
SK-OV-3 ovarian
  GI50: 2770 nM
  TGI: 8.16 µM
SK-MEL-2 melanoma
  GI50: 1990 nM
  TGI: 4.5 µM
COLO 205 colon
  GI50: 1590 nM
  TGI: 3.1 µM
MALME-3M melanoma
  GI50: 1.94 µM
  TGI: 5.21 µM
OVCAR-8 ovarian
  GI50: 1860 nM
  TGI: 3.86 µM
A498 renal
  GI50: 2.04 µM
  TGI: 4.75 µM
M14 melanoma
  GI50: 1430 nM
  TGI: 3.02 µM
NCI-H23 lung
  GI50: 2360 nM
  TGI: 6.19 µM
CAKI-1 renal
  GI50: 1.78 µM
  TGI: 3.53 µM
SN12C renal
  GI50: 3.62 µM
  TGI: 12.7 µM
RPMI-8226 leukemia
  GI50: 3040 nM
  TGI: 10.6 µM
NCI/ADR-RES ovarian
  GI50: 2.42 µM
  TGI: 6.97 µM
UO-31 renal
  GI50: 1.18 µM
  TGI: 3.94 µM
HT29 colon
  GI50: 2010 nM
  TGI: 5.03 µM
UACC-257 melanoma
  GI50: 2100 nM
  TGI: 5.19 µM
SK-MEL-28 melanoma
  GI50: 2380 nM
  TGI: 6.92 µM
SR leukemia
  GI50: 2270 nM
  TGI: > 100 µM
OVCAR-5 ovarian
  GI50: 1920 nM
  TGI: 4.03 µM
HL-60(TB) leukemia
  GI50: 2950 nM
  TGI: > 100 µM
SNB-75 CNS
  GI50: 1910 nM
  TGI: 5.75 µM
K-562 leukemia
  GI50: 3170 nM
  TGI: > 100 µM
SF-268 CNS
  GI50: 2.28 µM
  TGI: 5.43 µM
LOX IMVI melanoma
  GI50: 1910 nM
  TGI: 4.12 µM
PC-3 prostate
  GI50: 2260 nM
  TGI: 7.88 µM
IGROV1 ovarian
  GI50: 1700 nM
  TGI: 3.82 µM
HCC-2998 colon
  GI50: 1790 nM
  TGI: 3.5 µM
HCT-116 colon
  GI50: 359 nM
  TGI: 1.27 µM
EKVX NSCLC
  GI50: 1420 nM
  TGI: 3.45 µM
RXF 393 renal
  GI50: 1650 nM
  TGI: 3.37 µM
HS 578T breast
  GI50: 2.62 µM
  TGI: 8.91 µM
SW-620 colon
  GI50: 1730 nM
  TGI: 3.99 µM
MDA-MB-231 breast
  GI50: 2.2 µM
  TGI: 6.6 µM
KM12 colon
  GI50: 1460 nM
  TGI: 3.16 µM
CCRF-CEM leukemia
  GI50: 2600 nM
  TGI: > 100 µM
NCI-H460 lung
  GI50: 1970 nM
  TGI: 5.47 µM
BT-549 breast
  GI50: 2050 nM
  TGI: 4.68 µM
HOP-62 NSCLC
  GI50: 1110 nM
  TGI: 3.2 µM
UACC-62 melanoma
  GI50: 2160 nM
  TGI: 5.56 µM
786-0 renal
  GI50: 1.88 µM
  TGI: 3.61 µM
HCT-15 colon
  GI50: 1.2 µM
  TGI: 3 µM
MOLT-4 leukemia
  GI50: 3.37 µM
  TGI: > 100 µM
TK-10 renal
  GI50: 2.66 µM
  TGI: 7.09 µM
SNB-19 CNS
  GI50: 3.81 µM
  TGI: 14.6 µM
OVCAR-4 ovarian
  GI50: 2180 nM
  TGI: 5.82 µM
MCF7 breast
  GI50: 2020 nM
  TGI: 4.9 µM
NCI-H522 lung
  GI50: 2070 nM
  TGI: 4.52 µM
DU-145 prostate
  GI50: 1.79 µM
  TGI: 3.48 µM
MDA-MB-435
  GI50: 1790 nM
  TGI: 3.44 µM
ACHN renal
  GI50: 2.11 µM
  TGI: 5.61 µM
T-47D breast
  GI50: 2290 nM
  TGI: 6.15 µM
SF-539 CNS
  GI50: 2040 nM
  TGI: 4.43 µM
U251 CNS
  GI50: 2290 nM
  TGI: 6.35 µM
SK-MEL-5 melanoma
  GI50: 1780 nM
  TGI: 3.23 µM
SF-295 CNS
  GI50: 1720 nM
  TGI: 4.2 µM
HOP-92 NSCLC
  GI50: 1750 nM
  TGI: 4.7 µM

Source: PubChem BioAssay (NCI)
